Assay results: US4451483A, “2,3,4-Trinor-m-inter-phenylene-prostaglandin derivatives and compositions and method for inhibiting blood platelet aggregation” (Chinoin Gyogyszer es Vegyeszeti Termekek Gyara Rt., priority 1981, dated 1984)
Counter-ions that a name gives are not always drawn. Like-named read-outs stand apart in the source and are kept apart here.

Tests used:
human PRP = test: Inhibition of ADP-induced aggregation in human platelet rich plasma (PRP), method of Born; assay type: cell-based; conditions: aggregation provoked by 4 μmol/ml of ADP, read-out: IC50 on human PRP (concentration required to attain 50% inhibiting effect)
Text: (§1) The main pharmacological effect of the new compounds according to the invention is that, like PGI2, they inhibit blood platelet aggregation and are able to dissolve the already existing agglomerates. The aggregation inhibiting effects of the new compounds were examined on human and guinea pig platelet rich plasma (PRP) according to the method of Born. Aggregation was provoked by adding 4 μmol/ml of ADP to the plasma, and then the prostacycline concentrations required to attain 50% or 100% inhibiting effect (IC50 or IC100) were determined.

guinea pig PRP = test: Inhibition of ADP-induced aggregation in guinea pig platelet rich plasma (PRP), method of Born; assay type: cell-based; conditions: Cavia porcellus, aggregation provoked by 4 μmol/ml of ADP, read-out: IC100 on guinea pig PRP (concentration required to attain 100% inhibiting effect)
Text: as §1

[1] = sodium salt: storage, free acid: physiological conditions, hydrolysis into 6-keto-PGF1α, cited from earlier work
[2] = Biological half-life in aqueous medium (period within which the biological activity drops to the half); assay type: physicochemical; conditions: aqueous medium at pH=7
Experimental: The biological half-life (i.e. the period within which the biological activity of the substance drops to the half) is 3 minutes for PGI2 an an aqueous medium at pH=7, and about 7 days for the new compounds according to the invention.

Compound | IC50 (human PRP) [ng/mL] | IC100 (guinea pig PRP) [µg/mL] | stability of prostacycline sodium salt / free acid ([1]; listed as sodium salt of prostacycline) | half-life [2] [min] | stability of prostacycline sodium salt / free acid ([1]; listed as free PGI2 acid)
CCCCCC[C@H](O)/C=C/[C@@H]1[C@H]2C/C(=C/c3cccc(C(=O)O)c3)O[C@H]2C[C@H]1O [5(Z)-2,3,4-Trinor-1,5-inter-m-phenylene-20-methyl-PGI2 sodium salt] | 12.5 | 0.014 |  |  | 
CCCCC[C@H](O)/C=C/[C@@H]1[C@H]2C/C(=C/CCCC(=O)O)O[C@H]2C[C@H]1O [PGI2 sodium salt] | 2 | 0.00175 | very stable, highly storable compound |  | 
CCCCC[C@H](O)/C=C/[C@@H]1[C@H]2C/C(=C/CCCC(=O)O)O[C@H]2C[C@H]1O [PGI2] |  |  |  | 3 | rapidly hydrolyzes into 6-keto-PGF1α
